# Data taken from patent US10881653B2, “Tricyclic compounds and their use in the treatment of cancer” (The United States of America, as represented by the …, priority 2015, dated 2021).
# Counter-ions that a name gives are not always drawn. Like-named read-outs stand apart in the source and are kept apart here.
# What was measured:
# [1] = target: T1, recombinant thioredoxin reductase 1 (TrxR1) (Homo sapiens, UniProt Q16881); experiment: Inhibition of recombinant TrxR1 (DTNB assay); format: biochemical
# T1 sequence (Q16881 1-649): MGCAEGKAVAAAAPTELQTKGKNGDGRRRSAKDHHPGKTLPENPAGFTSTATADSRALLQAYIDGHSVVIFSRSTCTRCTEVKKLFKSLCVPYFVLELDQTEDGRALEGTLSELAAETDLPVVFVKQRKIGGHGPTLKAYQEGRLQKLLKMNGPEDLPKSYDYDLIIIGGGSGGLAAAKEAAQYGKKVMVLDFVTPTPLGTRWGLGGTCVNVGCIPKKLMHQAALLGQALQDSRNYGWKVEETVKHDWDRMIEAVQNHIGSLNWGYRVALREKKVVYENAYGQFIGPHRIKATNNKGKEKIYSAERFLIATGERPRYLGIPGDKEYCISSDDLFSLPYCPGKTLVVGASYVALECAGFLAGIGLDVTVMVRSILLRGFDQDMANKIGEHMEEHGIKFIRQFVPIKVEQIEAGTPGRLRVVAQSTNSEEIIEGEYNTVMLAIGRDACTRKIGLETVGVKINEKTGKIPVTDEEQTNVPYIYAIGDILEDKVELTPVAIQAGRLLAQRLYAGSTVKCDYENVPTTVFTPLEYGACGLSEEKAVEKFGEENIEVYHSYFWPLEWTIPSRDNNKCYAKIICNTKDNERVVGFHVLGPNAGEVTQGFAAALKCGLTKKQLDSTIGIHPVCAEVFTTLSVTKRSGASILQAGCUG
# Method: (§1) Small molecule inhibition of recombinant thioredoxin reductase 1 (TrxR1) and gluthathione reductase (GR) was examined in 96-well plate format. 15 nM TrxR1 was incubated in the presence of 250 μM NADPH, 0.1 mg/ml BSA, and various concentrations of the compound of Example 1 (1% DMSO final) in 50 mM Tris (pH 7.5) and 2 mM EDTA buffer for 15 minutes. Following the incubation period, 2.5 mM DTNB was added to each well and the change in O.D. at 412 nm was followed. Percent activity was determined using DMSO vehicle and no TrxR1 (blank) controls. 2 nM GR was incubated in the presence of 250 μM NADPH, 0.1 mg/ml BSA, and various concentrations of compounds (1% DMSO final) in 50 mM Tris (pH 7.5) and 2 mM EDTA buffer for 15 minutes. Following the incubation period, 1 mM GSSG was added to each well and the change in O.D. at 340 nm was followed. Percent activity was determined using DMSO vehicle and no GR (blank) controls.
# [2] = target: T2, gluthathione reductase (GR) (Homo sapiens, UniProt P00390); experiment: Inhibition of recombinant GR (GSSG assay); format: biochemical
# T2 sequence (P00390 44-522): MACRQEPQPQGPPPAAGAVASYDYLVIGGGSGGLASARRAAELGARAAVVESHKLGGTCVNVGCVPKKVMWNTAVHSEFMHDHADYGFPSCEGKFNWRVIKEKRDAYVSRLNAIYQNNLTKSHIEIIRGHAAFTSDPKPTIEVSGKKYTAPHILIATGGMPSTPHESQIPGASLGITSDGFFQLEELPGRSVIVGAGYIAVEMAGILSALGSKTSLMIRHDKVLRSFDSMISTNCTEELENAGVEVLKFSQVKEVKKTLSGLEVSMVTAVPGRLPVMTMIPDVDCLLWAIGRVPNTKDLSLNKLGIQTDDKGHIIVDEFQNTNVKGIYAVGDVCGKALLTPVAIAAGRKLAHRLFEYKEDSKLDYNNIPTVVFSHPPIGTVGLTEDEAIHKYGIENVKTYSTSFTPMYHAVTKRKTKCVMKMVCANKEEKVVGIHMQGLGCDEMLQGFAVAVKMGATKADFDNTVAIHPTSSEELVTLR
# Method: as §1
# [3] = Biological Example 4, assays of Biological Example 1, read-out: TrxR Inhibition
# [4] = Biological Example 4, assays of Biological Example 1
# [5] = Biological Example 1, 15 nM TrxR1, 250 μM NADPH, 15 minutes incubation, read-out: TrxR inhibition
# [6] = Biological Example 1, 2 nM GR, 250 μM NADPH, 15 minutes incubation
SMILES,"IC50 [1, 3]","IC50 [2, 4]","IC50 [1, 5]","IC50 [2, 6]"
"Cc1cccc(CN2[C@@H]3C(=O)C=C[C@H]2[C@@H]2C(=O)N(c4ccc(O)cc4)C(=O)[C@@H]23)c1 (relative stereo) [Example 55, exo-4-(4-Hydroxyphenyl)-11-(3-methylbenzyl)-4,11-diazatricyclo[5.3.1.0^2,6]-undec-9-ene-3,5,8-trione Trifluoroacetate]",1.64 µM,> 100 µM,–,–
"Cc1cccc(CN2[C@@H]3C(=O)C=C[C@H]2[C@@H]2C(=O)N(c4ccccc4O)C(=O)[C@@H]23)c1 (relative stereo) [Example 56, exo-4-(2-Hydroxyphenyl)-11-(3-methylbenzyl)-4,11-diazatricyclo[5.3.1.0^2,6]-undec-9-ene-3,5,8-trione Trifluoroacetate]",1.44 µM,> 100 µM,–,–
"Cc1cccc(CN2[C@@H]3C(=O)C=C[C@H]2[C@@H]2C(=O)N(c4cccc(O)c4)C(=O)[C@@H]23)c1 (relative stereo) [Example 58, exo-4-(3-Hydroxyphenyl)-11-(3-methylbenzyl)-4,11-diazatricyclo[5.3.1.0^2,6]undec-9-ene-3,5,8-trione Trifluoroacetate]",1.3 µM,> 100 µM,0.75 µM,> 100 µM
"CCc1ccc(N2C(=O)[C@@H]3[C@H](C2=O)[C@H]2C(=O)C=C[C@@H]3N2Cc2cccc(C)c2)cc1 (relative stereo) [Example 59, exo-4-(4-Ethylphenyl)-11-(3-methylbenzyl)-4,11-diazatricyclo[5.3.1.0^2,6]-undec-9-ene-3,5,8-trione Trifluoroacetate]",1.63 µM,> 100 µM,–,–
"CCN1C(=O)[C@@H]2[C@H](C1=O)[C@H]1C(=O)C=C[C@@H]2N1C (relative stereo) [Example 61, exo-4-Ethyl-11-methyl-4,11-diazatricyclo[5.3.1.0^2,6]undec-9-ene-3,5,8-trione Trifluoroacetate]",23.4 µM,> 100 µM,–,–
"Cc1cccc(CN2[C@@H]3C(=O)C=C[C@H]2[C@@H]2C(=O)N(c4cccc(Br)c4)C(=O)[C@@H]23)c1 (relative stereo) [Example 62, exo-4-(3-Bromophenyl)-11-(3-methylbenzyl)-4,11-diazatricyclo[5.3.1.0^2,6]-undec-9-ene-3,5,8-trione Trifluoroacetate]",1.23 µM,> 100 µM,–,–
"Cc1cccc(CN2[C@@H]3C(=O)C=C[C@H]2[C@@H]2C(=O)N(c4cccc(N5CCCCC5)c4)C(=O)[C@@H]23)c1 (relative stereo) [Example 63, exo-11-(3-Methylbenzyl)-4-(3-(piperidin-1-yl)phenyl)-4,11-diazatricyclo-[5.3.1.0^2,6]undec-9-ene-3,5,8-trione Trifluoroacetate]",1.58 µM,> 100 µM,–,–
"Cc1cccc(CN2[C@@H]3C(=O)C=C[C@H]2[C@@H]2C(=O)N(c4c(C)cccc4C)C(=O)[C@@H]23)c1 (relative stereo) [Example 65, exo 4-(2,6-Dimethylphenyl)-11-(3-methylbenzyl)-4,11-diazatricyclo-[5.3.1.0^2,6]undec-9-ene-3,5,8-trione Trifluoroacetate]",5.3 µM,> 100 µM,4.52 µM,> 100 µM
"Cc1cccc(CN2[C@@H]3C(=O)C=C[C@H]2[C@@H]2C(=O)N(c4ccc(Br)cc4)C(=O)[C@@H]23)c1 (relative stereo) [Example 66, exo-4-(4-Bromophenyl)-11-(3-methylbenzyl)-4,11-diazatricyclo[5.3.1.0^2,6]-undec-9-ene-3,5,8-trione Trifluoroacetate]",1.43 µM,> 100 µM,–,–
"NS(=O)(=O)c1cccc(CN2[C@@H]3C(=O)C=C[C@H]2[C@@H]2C(=O)N(c4ccccc4)C(=O)[C@@H]23)c1 (relative stereo) [Example 67, exo-3-((3,5,10-Trioxo-4-phenyl-4,11-diazatricyclo[5.3.1.0^2,6]undec-8-en-11-yl)methyl)benzenesulfonamide Trifluoroacetate]",1.99 µM,> 100 µM,1.31 µM,> 100 µM
"CS(=O)(=O)c1cccc(CN2[C@@H]3C(=O)C=C[C@H]2[C@@H]2C(=O)N(c4ccccc4)C(=O)[C@@H]23)c1 (relative stereo) [Example 68, exo-11-(3-(Methylsulfonyl)benzyl)-4-phenyl-4,11-diazatricyclo[5.3.1.0^2,6]-undec-9-ene-3,5,8-trione Trifluoroacetate]",2.24 µM,> 100 µM,1.88 µM,> 100 µM
"Cc1cccc(CN2[C@@H]3C(=O)C=C[C@H]2[C@@H]2C(=O)N(c4cccc(N5CCOCC5)c4)C(=O)[C@@H]23)c1 (relative stereo) [Example 70, exo-11-(3-Methylbenzyl)-4-(3-(4-morpholino)phenyl)-4,11-diazatricyclo-[5.3.1.0^2,6]undec-9-ene-3,5,8-trione Trifluoroacetate]",2.62 µM,> 100 µM,2.26 µM,> 100 µM
"CC(=O)Nc1ccc(N2C(=O)[C@@H]3[C@H](C2=O)[C@H]2C(=O)C=C[C@@H]3N2Cc2cccc(C)c2)cc1 (stereo in doubt) [Example 57, N-(4-(11-(3-Methylbenzyl)-3,5,10-trioxo-4,11-diazatricyclo[5.3.1.0^2,6]undec-8-en-4-yl)phenyl)acetamide Trifluoroacetate]",3.04 µM,> 100 µM,–,–
"CC(c1ccccc1)N1C2C=CC(=O)C1C1C(=O)N(c3ccccc3)C(=O)C12 (centres unmarked) [Example 5, 4-Phenyl-11-(1-phenylethyl)-4,11-diazatricyclo[5.3.1.0^2,6]undec-9-ene-3,5,8-trione Trifluoroacetate]",2.49 µM,> 100 µM,–,–
"O=C1C=CC2C3C(=O)N(c4ccccc4)C(=O)C3C1N2Cc1ccc(Br)cc1 (centres unmarked) [Example 6, 11-(4-Bromobenzyl)-4-phenyl-4,11-diazatricyclo[5.3.1.0^2,6]undec-9-ene-3,5,8-trione Trifluoroacetate]",0.57 µM,31.3 µM,2.12 µM,61.9 µM
"O=C1C=CC2C3C(=O)N(c4ccccc4)C(=O)C3C1N2Cc1ccc(F)cc1 (centres unmarked) [Example 8, 11-(4-Fluorobenzyl)-4-phenyl-4,11-diazatricyclo[5.3.1.0^2,6]undec-9-ene-3,5,8-trione Trifluoroacetate]",2.03 µM,28.5 µM,–,–
"CC1=CC(=O)C2C3C(=O)N(c4ccccc4)C(=O)C3C1N2Cc1ccccc1 (centres unmarked) [Example 12, 9-Benzyl-7-methyl-2-phenyl-3a,4,8,8a-tetrahydro-4,8-epiminocyclohepta[c]-pyrrole-1,3,5(2H)-trione Trifluoroacetate]",1.25 µM,41.4 µM,–,–
"CC1=CC(=O)[C@@H]2C3C(=O)N(C4CCCCC4)C(=O)C3[C@H]1N2Cc1ccccc1 (stereo partly drawn) [Example 13, endo-11-Benzyl-4-cyclohexyl-10-methyl-4,11-diazatricyclo[5.3.1.0^2,6]undec-9-ene-3,5,8-trione Trifluoroacetate]",7.82 µM,> 100 µM,–,–
"CC1=CC(=O)C2C3C(=O)N(Cc4ccccc4)C(=O)C3C1N2Cc1ccccc1 (centres unmarked) [Example 15, 4,11-Dibenzyl-10-methyl-4,11-diazatricyclo[5.3.1.0^2,6]undec-9-ene-3,5,8-trione Trifluoroacetate]",3.33 µM,> 100 µM,1.45 µM,> 100 µM
"O=C1C=CC2C3C(=O)N(c4ccccc4)C(=O)C3C1N2Cc1ccccc1Br (centres unmarked) [Example 20, 11-(2-Bromobenzyl)-4-phenyl-4,11-diazatricyclo[5.3.1.0^2,6]undec-9-ene-3,5,8-trione Trifluoroacetate]",0.94 µM,> 100 µM,3.7 µM,> 100 µM
